Counter-ions that a name gives are not always drawn.
Experiments:
[1] = Stability of vancomycin hydrochloride powder in bottle (HPLC or cylinder plate analysis); details: for μg/mg vancomycin hydrochloride powder: Ex. 1, 10 g powder in HDPE bottle; for % Vancomycin B / % other impurities / % Monodechlorovancomycin: Ex. 1 powder in bottle; for Monodechlorovancomycin / Other Impurities / Vancomycin / Vancomycin B: Ex. 4, 15.38 g powder in bottle
Procedure: Stability may be assessed by cylinder-plate assay (the cylinder plate assay depends on the diffusion of the antibiotic from a vertical cylinder through a solidified agar layer in a petri dish or plate. The growth of the specific microorganisms inoculated into the agar is prevented in a circular area or zone around the cylinder containing the solution of the antibiotic), HPLC or any other known testing method.
The stability of vancomycin hydrochloride powder was evaluated. […] At various time points the powder in the bottle was analyzed for vancomycin hydrochloride, vancomycin B, other impurities, and monodechlorovancomycin by HPLC or cylinder plate analysis.
Vancomycin hydrochloride was further investigated in stability studies. […] At each given time point, vancomycin hydrochloride, vancomycin B, other impurities, and monodechlorovancomycin were assayed by HPLC or total microbiological activity was assessed by cylinder plate analysis.

[2] = 289 mL solution component + 15.38 g powder, shaken 30 seconds
[3] = Ex. 4, 3 months accelerated and ambient

SMILES: CN[C@H](CC(C)C)C(=O)N[C@H]1C(=O)N[C@@H](CC(N)=O)C(=O)N[C@H]2C(=O)NC3C(=O)N[C@H](C(=O)N[C@H](C(=O)O)c4cc(O)cc(O)c4-c4cc3ccc4O)[C@H](O)c3ccc(c(Cl)c3)Oc3cc2cc(c3OC2OC(CO)C(O)C(O)C2OC2CC(C)(N)C(O)C(C)O2)Oc2ccc(cc2Cl)[C@H]1O (some centres unmarked) [vancomycin hydrochloride powder, vancomycin hydrochloride]
- μg/mg vancomycin hydrochloride powder ([1]; 40° C./75% RH, 0 months): 1067 µg/mg
- μg/mg vancomycin hydrochloride powder ([1]; 40° C./75% RH, 1 month): 1076 µg/mg
- μg/mg vancomycin hydrochloride powder ([1]; 40° C./75% RH, 2 months): 1097 µg/mg
- μg/mg vancomycin hydrochloride powder ([1]; 40° C./75% RH, 3 months): 1094 µg/mg
- μg/mg vancomycin hydrochloride powder ([1]; 40° C./75% RH, 6 months): 1137 µg/mg
- powder in bottle stability ([1]; Ex. 1, ambient and accelerated conditions (25° C./60% RH and 40°/75% RH)): stable
- % Vancomycin B ([1]; 25° C./60% (RH), 0 months): 93.03%
- % other impurities ([1]; 25° C./60% (RH), 0 months): <5.0% for all other
- % Vancomycin B ([1]; 25° C./60% (RH), 3 months): 92.19%
- % other impurities ([1]; 25° C./60% (RH), 3 months): <5.0% for all other
- % Vancomycin B ([1]; 25° C./60% (RH), 6 months): 92.04%
- % other impurities ([1]; 25° C./60% (RH), 6 months): <5.0% for all other
- % Vancomycin B ([1]; 25° C./60% (RH), 9 months): 89.34%
- % other impurities ([1]; 25° C./60% (RH), 9 months): <5.0% for all other
- % Vancomycin B ([1]; 25° C./60% (RH), 12 months): 88.85%
- % other impurities ([1]; 25° C./60% (RH), 12 months): <5.0% for all other
- % Vancomycin B ([1]; 25° C./60% (RH), 18 months): 90.8%
- % other impurities ([1]; 25° C./60% (RH), 18 months): <5.0% for all other
- % Vancomycin B ([1]; 40° C./75% RH, 0 months): 93.03%
- % other impurities ([1]; 40° C./75% RH, 0 months): <5.0% for all other
- % Monodechlorovancomycin ([1]; 40° C./75% RH, 1 month): 1.0%
- % Vancomycin B ([1]; 40° C./75% RH, 1 month): 91.87%
- % other impurities ([1]; 40° C./75% RH, 1 month): <5.0% for all other
- % Monodechlorovancomycin ([1]; 40° C./75% RH, 2 months): 1.3%
- % Vancomycin B ([1]; 40° C./75% RH, 2 months): 89.14%
- % other impurities ([1]; 40° C./75% RH, 2 months): <5.0% for all other
- % Monodechlorovancomycin ([1]; 40° C./75% RH, 3 months): 1.6%
- % Vancomycin B ([1]; 40° C./75% RH, 3 months): 88.22%
- % other impurities ([1]; 40° C./75% RH, 3 months): <5.0% for all other
- % Vancomycin B ([1]; 40° C./75% RH, 6 months): 81.84%
- % other impurities ([1]; 40° C./75% RH, 6 months): <5.0% for all other
- Monodechlorovancomycin ([1]; 25° C./60% RH, 0 months): 1.5%
- Other Impurities ([1]; 25° C./60% RH, 0 months): <5.0% for
- Vancomycin ([1]; 25° C./60% RH, 0 months): 1,112 mcg/mg
- Vancomycin B ([1]; 25° C./60% RH, 0 months): 94.7%
- Monodechlorovancomycin ([1]; 25° C./60% RH, 3 months): 1.1%
- Other Impurities ([1]; 25° C./60% RH, 3 months): <5.0% for
- Vancomycin ([1]; 25° C./60% RH, 3 months): 1,070 mcg/mg
- Vancomycin B ([1]; 25° C./60% RH, 3 months): 91.8%
- Monodechlorovancomycin ([1]; 40° C./60% RH, 0 months): 1.5%
- Other Impurities ([1]; 40° C./60% RH, 0 months): <5.0% for all
- Vancomycin ([1]; 40° C./60% RH, 0 months): 1,112 mcg/mg
- Vancomycin B ([1]; 40° C./60% RH, 0 months): 94.7%
- Monodechlorovancomycin ([1]; 40° C./60% RH, 1 month): 1.4%
- Other Impurities ([1]; 40° C./60% RH, 1 month): <5.0% for all
- Vancomycin ([1]; 40° C./60% RH, 1 month): 1,095 mcg/mg
- Vancomycin B ([1]; 40° C./60% RH, 1 month): 91.3%
- Monodechlorovancomycin ([1]; 40° C./60% RH, 2 months): 1.1%
- Other Impurities ([1]; 40° C./60% RH, 2 months): <5.0% for all
- Vancomycin ([1]; 40° C./60% RH, 2 months): 1,108 mcg/mg
- Vancomycin B ([1]; 40° C./60% RH, 2 months): 90.8%
- Monodechlorovancomycin ([1]; 40° C./60% RH, 3 months): 1.0%
- Other Impurities ([1]; 40° C./60% RH, 3 months): <5.0% for all
- Vancomycin ([1]; 40° C./60% RH, 3 months): 1,095 mcg/mg
- Vancomycin B ([1]; 40° C./60% RH, 3 months): 87.6%
- Monodechlorovancomycin, not exceeded [1, 3]: ≤ 4.7%
- other impurities, not exceeded [1, 3]: ≤ 5.0%
- powder stability ([1]; Ex. 4, accelerated and ambient (25±2° C./60±5% RH) conditions): remained stable through 3 months under accelerated stability conditions and 3 months under ambient
- dissolution of powder in the solution component [2]: easily dissolves in the solution component

— US20210038515A1 (Azurity Pharmaceuticals, Inc., priority 2014, published 2021)
